The source of these data is patent US20110207751A1, “HETEROCYCLIC COMPOUNDS AND USES AS ANTICANCER AGENTS” (priority 2010, published 2011).

Data set [1] concerns A549 human non-small cell lung cancer xenograft. The experiment in a line: In vivo antitumor efficacy, A549 xenograft. The arrangement: species or system BALB/c immunodeficient nude mice. The settings on record: 30 mg/kg ig × 13 qod. The source says:
To evaluate the in vivo anticancer efficacy of COMPOUND O, A549 human non-small cell lung cancer xenograft models in immunodeficient nude mice was used. The cell line and mice were maintained in the Pharmacology Lab of ACEA Bio (Hangzhou) CO., Ltd. The BALB/c immunodeficient nude mice were purchased from Shanghai SLAC Laboratory Animal, certification number: SCXKA (Shanghai) 2007-0005. The mouse weight was between 21±1 g. Only female mice were used in this study. The numbers of animals tested were as follow: 7-8 for each dose group, 6 for positive control group and 7 for negative control group.
(§1) Test Control. For negative control, each mouse was administered orally with the solvent only having the same volume and same concentration as those used in COMPOUND O test, 120 mg/kg once every other day (qod) for 25 days. For positive control, an oral anticancer compound, Etoposide was administered orally at 30 mg/kg qod for 25 days.
Preparation an Administration of Test Compounds. COMPOUND O was dissolved in 25% phospholipid (S75) and 75% polyvinylpyrrolidone (PL-PVP) then further diluted to 8 mg/ml in 0.9% NaCl aqueous solution. Each mouse was administered orally with the compound solution. Different dosages of COMPOUND O (120 mg/kg qod and 160 mg/kg q2*2 (dosing for 2 consecutive days then off for 2 consecutive days) were used in the study.
Preparation of tumor cells for transplantation and determination of compound efficacy. To prepare the cancer cells for A549 human non-small cell lung cancer xenograft model, the log phase growing cell in the flask were trypsinized and cells were re-suspended in PBS (pH 7.2) at 2.5×10^7 cells/ml. The cell suspension (5×10^6 cells) was subcutaneously injected into the auxiliary region (right-side) of each mouse. After the inoculated cancer cells grew to a tumor of certain size (50-60 mm^3) in the nude mice (about 15 days post inoculation), the mice were randomized into different dosing groups and subjected to compound treatment. Between 3-4 weeks after the first dosing, mice were sacrificed and the transplanted tumors were removed from experimental mice. Each removed solid tumor was weighed; the tumor inhibition rate in each dosage group was calculated according to equation (1) in Example 1.
(§2) All used materials including animal food, animal cage, supporting materials and apparatus contacted by animals, were high-pressure sterilized. Nude mice were maintained in laminar flow shelves under SPF condition. After tumor transplantation, mouse weight and tumor size in each compound dosage group were dynamically monitored and plotted. The tumor size was determined by measuring the major axis (a) and minor axis (b) of the tumor, and tumor volume was calculated according to the formula (2) in Example 1.

A short description of data set [2]: Body weight and animal number of carrier mice, MKN45 xenograft test. Conditions: 50 mg/kg ig × 6 q3d. Type of data set: in vivo, BALB/c immunodeficient nude mice. Here is the method:
To evaluate the in vivo anticancer efficacy of COMPOUND O, MKN45 human gastric-intestinal cancer xenograft models in immunodeficient nude mice was tested. All the mouse models are maintained in the Pharmacology Lab of ACEA Bio (Hangzhou) CO., Ltd. The BALB/c immunodeficient nude mice were purchased from Shanghai SLAC Laboratory Animal, certification number: SCXKA (Shanghai) 2007-0005. The mouse weight was 19±1 g. Only female mice were used in this study. The numbers of animals tested were as follow: 7 for each dose group, 7 for positive control group and 7 for negative control group.
Test Control. For negative control, each mouse was administered orally with the solvent only having the same volume and same concentration as those used in COMPOUND O test, 120 mg/kg once every other day (qod) for 18 days. […]
Preparation an Administration of Test Compounds. COMPOUND O was dissolved in 25% phospholipid (S75) and 75% polyvinylpyrrolidone (PL-PVP) then further diluted to 8 mg/ml in 0.9% NaCl aqueous solution. Different dosages of COMPOUND O between 120 mg/kg qod (once every other day) and 160 mg/kg q3d (once every 3 days) were used in the study.
All used materials including animal food, animal cage, supporting materials and apparatus contacted by animals, were high-pressure sterilized. Nude mice were maintained in laminar flow shelves under SPF condition. After tumor transplantation, mouse weight and tumor size in each compound dosage group were dynamically monitored and plotted. The tumor size was determined by measuring the major axis (a) and minor axis (b) of the tumor, and tumor volume was calculated according to the formula: […]

Data set [3] in a line: Body weight and animal number of carrier mice, H460 xenograft test. Conditions: 30 mg/kg ig × 13 qod. Type of data set: in vivo, BALB/c immunodeficient nude mice.
Text: To evaluate the in vivo anticancer efficacy of COMPOUND O, H460 human non-small cell lung Cancer xenograft models in immunodeficient nude mice was used. The cell line and mice were maintained in the Pharmacology Lab of ACEA Bio (Hangzhou) CO., Ltd. The BALB/c immunodeficient nude mice were purchased from Shanghai SLAC Laboratory Animal, certification number: SCXKA (Shanghai) 2007-0005. The mouse weight was between 19±2 g. Only female mice were used in this study. The numbers of animals tested were as follows: 7 for each dose group, 7 for positive control group and 7 for negative control group.
as §1
Preparation an Administration of Test Compounds. COMPOUND O was dissolved in 25% phospholipid (S75) and 75% polyvinylpyrrolidone (PL-PVP) then further diluted to 8 mg/ml in 0.9% NaCl aqueous solution. Each mouse was administered orally with the compound solution. Different dosages of COMPOUND O (120 mg/kg qod and 160 mg/kg q3d) were used in the study.
as §2

Data set [4] relates to KB cells (parental cervical cancer cell line). The experiment in a line: Inhibition of cell proliferation, xCelligence cell index. The settings on record: Homo sapiens, 72 hr post compound treatment, read-out: calculated IC50. Type of data set: cell-based.
Text: The biological activity of compounds disclosed herein was monitored and profiled using the Real-Time Cell Electronic Sensing (RT-CES®) system from ACEA Biosciences, Inc. The RT-CES system utilizes cell-substrate impedance technology to monitor cellular behavior inside tissue culture wells in a microtiter plate format. The technology features in the integration of molecular and cell biology with microelectronics and is based on the electronic detection of biological assay process.
For measurement of cell-substrate or cell-electrode impedance using RT-CES technology, microelectrodes having appropriate geometries are fabricated onto the bottom surfaces of microtiter plate or similar device, facing into the wells. Cells are introduced into the wells of the devices, and make contact to and attach to the electrode surfaces. The presence, absence or change of properties of cells affects the electronic and ionic passage on the electrode sensor surfaces. Measuring the impedance between or among electrodes provides important information about biological status of cells present on the sensors. When there are changes to the biological status of the cells analogue electronic readout signals are measured automatically and in real time, and are converted to digital signals for processing and for analysis. In a RT-CES system, a cell index (arbitrary representation of change in impedance) is automatically derived and provided based on measured electrode impedance values. The cell index obtained for a given well reflects: 1) how many cells are attached to the electrode surfaces in this well; 2) how well cells are attached to the electrode surfaces in this well. […]
To quantify cell status based on the measured cell-electrode impedance, a parameter termed Cell Index is derived. Cell Index is a quantitative measure of the status of the cells in an electrode-containing well. […]
The parental cervical cancer cell line, KB cells were first tested. […] The cell status was monitored prior to and after the compound addition using xCelligence system (Roche). […]
Data set [5] has as its system microtubule network in A549 cells. Description: Microtubule organization in A549 cells. It is filed as cell-based, human. Conditions: 20 hr treatment.

In the case of `COc1cc([C@@H]2c3cc4c(cc3[C@@H](O[C@@H]3O[C@@H]5CO[C@@H](C)O[C@H]5[C@H](O)[C@H]3O)[C@H]3COC(=O)[C@H]23)OCO4)cc(OC)c1O` [Etoposide, reference compound], in data set [1], the “TV inhibition rate % T/C” value is 40.0%, the “Tumor volume (mm^3) End” value is given as 243 ± 121 mm^3, the “Tumor volume (mm^3) Start” value is on record as 57.42 ± 23.5 mm^3 and the “Tumor weight (g) x ± SD” value turned out to be 0.27 ± 0.15 g. Moreover, the “Tumor inhibition rate %” value in data set [1] (by tumor weight) is 59.9%. For the same compound, in data set [2], the “Animal weight (g) Beginning” value came to 18.9 g, the “Animal weight (g) end” value is on record as 16.9 g, the “Body weight of mice (g) 1 day” value is reported as 18.94 ± 0.92 g and the “Body weight of mice (g) 4 day” value is recorded as 19.57 ± 1.16 g. In data set [2], the “Body weight of mice (g) 8 day” value is 17.17 ± 0.85 g, the “Body weight of mice (g) 11 day” value is recorded as 17.26 ± 1.24 g, the “Body weight of mice (g) 16 day” value is reported as 16.94 ± 0.91 g and the “Body weight of mice (g) 18 day” value is reported as 16.93 ± 0.75 g. Besides, the “Animal No. end” value in data set [2] (7 at beginning) was 7/7. Also, in data set [3], the “Animal weight (g) Beginning” value turned out to be 19.97 g, the “Animal weight (g) end” value is 17.13 g, the “Body weight of mice (g) 1 day” value was determined as 19.97 ± 0.88 g and the “Body weight of mice (g) 3 day” value turned out to be 19.66 ± 0.75 g. Also, in data set [3], the “Body weight of mice (g) 7 day” value came out at 19.70 ± 1.38 g, the “Body weight of mice (g) 10 day” value stood at 19.66 ± 1.10 g, the “Body weight of mice (g) 14 day” value amounted to 18.86 ± 1.07 g and the “Body weight of mice (g) 17 day” value came to 18.79 ± 1.17 g. For the same compound, in data set [3], the “Body weight of mice (g) 22 day” value came out at 17.86 ± 1.35 g, the “Body weight of mice (g) 24 day” value amounted to 17.56 ± 1.44 g and the “Body weight of mice (g) 25 day” value is 17.13 ± 1.14 g. In addition, in data set [3] (7 at beginning), the “Animal No. end” value is given as 7/7.
What is called IC50 is the concentration at which inhibition is half-maximal. Consider `CC(=O)O[C@H]1C(=O)[C@@]2(C)[C@H]([C@H](OC(=O)c3ccccc3)[C@]3(O)C[C@H](OC(=O)[C@H](O)[C@@H](NC(=O)c4ccccc4)c4ccccc4)C(C)=C1C3(C)C)[C@]1(OC(C)=O)CO[C@@H]1C[C@@H]2O` [paclitaxel], for which the IC50 in data set [4] is 7.19 nM. The “effect on microtubule organization” value in data set [5] is “microtubule polymerization with an increasing in the density of cellular microtubules”.
